Data from US11542274B1, “Therapeutic compounds and methods of use thereof” (AGENCY FOR SCIENCE, TECHNOLOGY AND RESEARCH (A*STAR), priority 2019, dated 2023).

Biological target: truncated CRBN (319-427) (Homo sapiens (Human), UniProt Q96SW2)
Assay: Fluorescence binding assay (fluorescence quenching), affinity to E3-CEREBLON (CRBN)-ubiquitin ligase
Conditions: pH 6.5
Procedure: Fluorescence quenching end point measurements were performed in black polystyrene 384-plates on Tecan Safire monochromator reader with the following settings: excitation 280 nm; excitation bandwidth 10.0 nm; emission collection 340 nm; emission bandwidth 20.0 nm; high sensitivity flash mode; integration time 40 μS; delay 0 μm. All measurements were done in duplicates; GraphPad Prism 5.03 was used for data evaluation, curve fitting, plotting and determination of IC50 values.
Serial dilutions of each tested ligands were mixed with truncated CRBN (319-427) to a final volume of 25 μL in the assay buffer (20 mM sodium phosphate buffer, pH 6.5, with 150 mM sodium chloride). The final concentration of CRBN in all assay will be 5-10 μM with DMSO level at 4%. A control lanes were prepared with only tested ligands without the addition of CRBN, top up with assay buffer to 25 μL. Plates were incubated for 5 minutes and analyzed using the monochromator plate reader.
IC50 is the compound concentration that causes 50% quenching of the desired activity.

[1] = ubiquitination moiety and linker

Sequence of truncated CRBN (319-427) (Q96SW2 319-427): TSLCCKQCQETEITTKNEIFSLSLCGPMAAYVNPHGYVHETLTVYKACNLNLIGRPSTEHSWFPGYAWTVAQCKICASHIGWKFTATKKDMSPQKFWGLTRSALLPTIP

Compound	IC50 (ubiquitination moiety) [µM]	IC50 [1] [µM]
CN1C(=O)Cc2ccc(-c3ccncc3)cc21 [Compound 008, 1-methyl-6-(pyridin-4-yl)indolin-2-one]	> 300	
O=C1Cc2cc(NC(=O)c3ccnc(F)c3)ccc2N1 [Compound 076, 2-fluoro-N-(2-oxoindolin-5-yl)isonicotinamide]	100 to 300	
CN1CCC(NC(=O)c2ccc3c(c2)NC(=O)C3)CC1 [Compound 027, N-(1-methylpiperidin-4-yl)-2-oxoindoline-6-carboxamide]	> 300	
O=C1Cc2cc(-c3ccccc3)ccc2N1 [Compound 051, 5-phenylindolin-2-one]	> 300	
COC(=O)COc1ccc2c(c1)NC(=O)C2 [Compound 036, methyl 2-((2-oxoindolin-6-yl)oxy)acetate]	> 300	
O=C1Cc2cc(-c3ccc(C(=O)N4CCNCC4)cc3)ccc2N1 [Compound 054, 5-(4-(piperazine-1-carbonyl)phenyl)indolin-2-one]	100 to 300	
O=C1Cc2ccc(-c3ccc(N4CCCCC4)nc3)cc2N1 [Compound 064, 6-(6-(piperidin-1-yl)pyridin-3-yl)indolin-2-one]	> 300	
O=C1Cc2ccc(NC(=O)c3cccnc3)cc2N1 [Compound 071, N-(2-oxoindolin-6-yl)nicotinamide]	100 to 300	
Cn1cc(-c2ccc3c(c2)NC(=O)C3)cn1 [Compound 015, 6-(1-methyl-1H-pyrazol-4-yl)indolin-2-one]	> 300	
O=C1Cc2ccc(C(=O)N3CCCCC3)cc2N1 [Compound 029, 6-(piperidine-1-carbonyl)indolin-2-one]	> 300	
O=C1Cc2cc(-c3cccc(C(=O)N4CCNCC4)c3)ccc2N1 [Compound 055, 5-(3-(piperazine-1-carbonyl)phenyl)indolin-2-one]	100 to 300	
O=C1Cc2cc(-c3ccncc3)ncc2N1 [Compound 073, 5-(pyridin-4-yl)-1,3-dihydro-2H-pyrrolo[2,3-c]pyridin-2-one]	> 300	
CC1C(=O)Nc2cc(-c3ccncc3)ccc21 (centres unmarked) [Compound 007, 3-methyl-6-(pyridin-4-yl)indolin-2-one]	100 to 300	
NC1CCN(C(=O)c2ccc3c(c2)NC(=O)C3)CC1 [Compound 077, 6-(4-aminopiperidine-1-carbonyl)indolin-2-one]	> 300	
O=C1Cc2ccc(C3=CCN(C(=O)OCc4ccccc4)CC3)cc2N1 [Compound 063, benzyl 4-(2-oxoindolin-6-yl)-3,6-dihydropyridine-1(2H)-carboxylate]	> 300	
Nc1ccc(OCCOCCOCCOCCNc2ccc(-c3ccc4c(c3)CC(=O)N4)cn2)cc1 [Compound 093, 5-(6-((2-(2-(2-(2-(4-aminophenoxy)ethoxy)ethoxy)ethoxy)ethyl)amino)-pyridin-3-yl)indolin-2-one]		1 to 100
[N-]=[N+]=NCCOCCOCCOCCNC(=O)c1cc(-c2ccc3c(c2)NC(=O)C3)ccn1 [Compound 084, N-(2-(2-(2-(2-azidoethoxy)ethoxy)ethoxy)ethyl)-4-(2-oxoindolin-6-yl)picolinamide]		1 to 100
CC(=O)Nc1ccc(-c2ccc3c(c2)CC(=O)N3)c(C)n1 [Compound 049, N-(6-methyl-5-(2-oxoindolin-5-yl)pyridin-2-yl)acetamide]	> 300	
O=C1Cc2ccc(NC(=O)c3ccncc3)cc2N1 [Compound 032, N-(2-oxoindolin-6-yl)isonicotinamide]	100 to 300	
N-(1-acetylpiperidin-4-yl)-2-oxoindoline-6-carboxamide [Compound 026]	> 300	
CC(C)(C)OC(=O)N1CCN(C(=O)c2ccc(-c3ccc4c(c3)CC(=O)N4)cc2)CC1 [Compound 052, tert-butyl 4-(4-(2-oxoindolin-5-yl)benzoyl)piperazine-1-carboxylate]	> 300	
O=C1Cc2ccc(-c3ccc(CN4CCNCC4)cc3)cc2N1 [Compound 018, 6-(4-(piperazin-1-ylmethyl)phenyl)indolin-2-one]	1 to 100	
O=C1Cc2ccc(C(=O)Nc3ccccc3)cc2N1 [Compound 024, 2-oxo-N-phenylindoline-6-carboxamide]	> 300	
